Measured values from patent US12331068B2, “Compositions and methods for inhibiting CD73” (Peloton Therapeutics, Inc., priority 2018, dated 2025).
Where two headings read alike, the source gives them in different places.

Legend:
Human CD73 = biological target: T1, Human CD73 (Homo sapiens, UniProt P21589); experiment: CD73 Enzyme Assay (EnzChek PNP/MESG kinetic readout of AMP hydrolysis); assay type: biochemical; details: 0.25 nM hCD73, 25 μM AMP; read-out: CD73 Enzyme Assay IC50
T1 construct: purchased R&D Systems; host or cells: CHO cells
T1 sequence (P21589 27-549): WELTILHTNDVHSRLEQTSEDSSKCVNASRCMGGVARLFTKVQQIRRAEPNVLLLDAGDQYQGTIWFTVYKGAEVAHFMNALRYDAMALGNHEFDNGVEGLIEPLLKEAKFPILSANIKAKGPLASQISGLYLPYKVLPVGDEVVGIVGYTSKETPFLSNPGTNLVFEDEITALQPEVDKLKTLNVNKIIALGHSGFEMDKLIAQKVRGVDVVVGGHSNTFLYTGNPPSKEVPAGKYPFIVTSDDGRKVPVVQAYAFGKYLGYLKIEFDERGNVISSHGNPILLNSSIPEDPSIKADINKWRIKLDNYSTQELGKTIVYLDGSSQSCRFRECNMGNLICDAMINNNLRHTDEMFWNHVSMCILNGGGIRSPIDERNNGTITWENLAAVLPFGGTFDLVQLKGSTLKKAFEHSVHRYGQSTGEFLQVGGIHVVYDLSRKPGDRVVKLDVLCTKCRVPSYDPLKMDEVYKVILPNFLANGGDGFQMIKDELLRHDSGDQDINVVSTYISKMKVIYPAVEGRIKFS
How it was run: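 Compounds tested as 15-point, 3-fold dilution series (300 μM to 0.0002 μM) in DMSO. Kinetic absorbance at 360 nm read every minute for 10–20 min, initial velocity taken from the linear portion.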

[1] = biological target: T2, CD73 on U138 human neuroglioma cells (Homo sapiens, UniProt P21589); experiment: CD73 Cell-Based Assay (inorganic phosphate from AMP, malachite green); details: AMP substrate, 2 hours at 37° C.
T2 construct: U138 cells were obtained from ATCC and cultured in DMEM with 10% FBS; host or cells: U138 human neuroglioma cells
T2 sequence (P21589 27-549): T1 sequence (P21589 27-549)
How it was run: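 U138 cells, seeded the day before at 2500 per well, were washed and given AMP substrate (200 μM in the added mixture, before dilution into the buffer) together with compound. After 2 h at 37 °C in 5% CO2, inorganic phosphate in the supernatant was measured with malachite green.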

[2] = read-out: CD73 Cell-Based assay IC50

Row | IC50 (Human CD73) [µM] | IC50 [1, 2] [µM] | IC50 ([1]; read-out: IC50) [µM] | SMILES
1 | < 0.01 | < 0.01 | – | C[C@H](Nc1c(C#N)c(Cl)nc2c1cnn2[C@@H]1O[C@H](COP(=O)(O)CP(=O)(O)O)[C@@H](O)[C@H]1O)c1ccc(C#N)cc1 [Compound 243]
2 | < 0.01 | < 0.01 | – | N#Cc1c(Cl)nc2c(cnn2[C@@H]2O[C@H](COP(=O)(O)CP(=O)(O)O)[C@@H](O)[C@H]2O)c1NC1CCCC1 [Compound 244]
3 | < 0.01 | < 0.01 | – | C[C@H](Nc1c(C#N)c(Cl)nc2c1ncn2[C@@H]1O[C@H](COP(=O)(O)CP(=O)(O)O)[C@@H](O)[C@@H]1F)c1ccc(F)cc1 [Compound 245]
4 | < 0.01 | < 0.01 | – | C[C@H](Nc1c(C#N)c(Cl)nc2c1cnn2[C@@H]1O[C@H](COP(=O)(O)CP(=O)(O)O)[C@@H](O)[C@H]1O)c1ccc(F)cc1 [Compound 247]
5 | < 0.01 | < 0.01 | – | C[C@@H](Nc1c(C#N)c(Cl)nc2c1cnn2[C@@H]1O[C@H](COP(=O)(O)CP(=O)(O)O)[C@@H](O)[C@H]1O)c1ccccc1F [Compound 248]
6 | < 0.01 | < 0.01 | – | C[C@@H](Nc1c(C#N)c(Cl)nc2c1cnn2[C@@H]1O[C@H](COP(=O)(O)CP(=O)(O)O)[C@@H](O)[C@H]1O)c1ccc(C#N)cc1 [Compound 249]
7 | < 0.01 | < 0.01 | – | C[C@@H](Nc1c(C#N)c(Cl)nc2c1ncn2[C@@H]1O[C@H](COP(=O)(O)CP(=O)(O)O)[C@@H](O)[C@@H]1F)c1ccc(F)cc1 [Compound 250]
8 | < 0.01 | < 0.01 | – | N#Cc1c(Cl)nc2c(cnn2[C@@H]2O[C@H](COP(=O)(O)CP(=O)(O)O)[C@@H](O)[C@H]2O)c1N[C@H]1C[C@@H](F)C1 [Compound 321]
9 | < 0.01 | < 0.01 | – | N#Cc1c(Cl)nc2c(cnn2[C@@H]2O[C@H](COP(=O)(O)CP(=O)(O)O)[C@@H](O)[C@H]2O)c1NC1CC(F)(F)C1 [Compound 322]
10 | < 0.01 | < 0.01 | 0.0014 | O=P(O)(O)CS(=O)(=O)C[C@H]1O[C@@H](n2ccc3c(NC4CCCC4)cc(Cl)nc32)[C@H](O)[C@@H]1O [Compound 323]
